Measured values as given in article PMC7251097, “Aspartate/asparagine-β-hydroxylase: a high-throughput mass spectrometric assay for discovery of small molecule inhibitors” (Scientific Reports, 2020).
Where a name gives a salt, the structure may show the parent alone. Read-outs that look alike come from different tables or passages of the source.

Molecular target: T1, His6-AspH315–758 (human aspartate/asparagine-β-hydroxylase, AspH) (Homo sapiens, UniProt Q12797)
T1 construct: N-Terminally His6-tagged human AspH315–758 (His6-AspH315–758) was produced in E. coli BL21 (DE3) cells; made in house; host or cells: E. coli BL21 (DE3), pET-28a(+) vector
T1 sequence (Q12797 315-758): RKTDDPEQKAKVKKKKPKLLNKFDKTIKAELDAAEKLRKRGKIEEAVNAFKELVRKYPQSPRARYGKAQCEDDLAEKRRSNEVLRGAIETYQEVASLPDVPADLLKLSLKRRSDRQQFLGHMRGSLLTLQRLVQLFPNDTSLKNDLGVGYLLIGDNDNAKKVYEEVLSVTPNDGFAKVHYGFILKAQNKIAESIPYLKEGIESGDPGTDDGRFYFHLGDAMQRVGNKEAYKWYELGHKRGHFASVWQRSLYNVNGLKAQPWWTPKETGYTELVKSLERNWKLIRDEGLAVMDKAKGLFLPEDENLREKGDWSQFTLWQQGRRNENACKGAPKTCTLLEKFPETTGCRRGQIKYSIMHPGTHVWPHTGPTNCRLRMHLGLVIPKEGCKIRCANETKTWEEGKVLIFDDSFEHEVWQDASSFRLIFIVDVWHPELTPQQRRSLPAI
Experiment: SPE-MS AspH inhibition assay (LOPAC screen at fixed 20 μM and IC50 dose-response), hydroxylation of cyclic peptide hFX-CP101–119
Format: biochemical
Details: for Plate 3 (% conversion): LOPAC compound at 20uM, conversion of substrate peptide

[1] = LOPAC Plate 4, compound at 20 uM, substrate conversion
[2] = LOPAC Plate 4, compound at 20 uM, read-out: % inhibition
[3] = plate 5 (Pfitzer), test compounds at fixed 20 μM
[4] = plate 5 (Pfitzer), test compounds at fixed 20 μM, mean conversion DMSO 32.88
[5] = LOPAC Plate 4, compound at 20 uM
[6] = AspH activity, fixed compound concentration 20 μM, initial LOPAC screen, 0.5%v/v DMSO, read-out: Inhibition at 20 µM [%]

With `Cc1scc2c1N(C(=O)CN1CCN(C)CC1)c1ccccc1NC2=O` [Telenzepine dihydrochloride] the “% conversion” value [1] was 38.43% and the inhibition at 20 µM [2] was -5.75%.
For `CO[C@H]1C[C@@H]2CC[C@@H](C)[C@@](O)(O2)C(=O)C(=O)N2CCCC[C@H]2C(=O)O[C@H]([C@H](C)C[C@@H]2CC[C@@H](OC(=O)C(C)(CO)CO)[C@H](OC)C2)CC(=O)[C@H](C)/C=C(\C)[C@@H](O)[C@@H](OC)C(=O)[C@H](C)C[C@H](C)/C=C/C=C/C=C/1C` [Temsirolimus], the “Plate 5 (% inhibition)” value [3] was 52.39% and the “Plate 5 (% conversion)” value [4] was 18.48%.
For `CC(C)(C)NCC(O)c1cc(O)cc(O)c1.CC(C)(C)NCC(O)c1cc(O)cc(O)c1.O=S(=O)(O)O` (stereo not drawn) [Terbutaline hemisulfate], the “% inhibition” value [5] was 5.48% and the “% conversion” value [1] was 34.60%.
`CC(C)(C)c1ccc(C(O)CCCN2CCC(C(O)(c3ccccc3)c3ccccc3)CC2)cc1` (stereo not drawn) [Terfenadine] was tested, and the “% conversion” value [1] was 45.15% and the inhibition at 20 µM [2] was -25.4%.
With `COc1cc2c(cc1OC)C1CC(=O)C(CC(C)C)CN1CC2` (stereo not drawn) [Tetrabenazine] the “% conversion” value [1] was 27.36%.
In the case of `CCCCNc1ccc(C(=O)OCCN(C)C)cc1` [Tetracaine hydrochloride], the “% conversion” value [1] is reported as 40.45% and the inhibition at 20 µM [2] is reported as -11.7%.
In the case of `CCCCCCCCCCCCCCSCC(=O)O` [Tetradecylthioacetic acid], the “% conversion” value [1] is reported as 26.50% and the inhibition at 20 µM [2] is reported as 29.2%.
In the case of `CC[N+](CC)(CC)CC` [Tetraethylammonium chloride], the “% conversion” value is reported as 26.96%.
In the case of `CCN(CC)C(=S)SSC(=S)N(CC)CC` [Tetraethylthiuram disulfide], the “% conversion” value [1] is reported as 22.31%.
With `c1ccc2c(c1)CCCC2C1=NCCN1` (stereo not drawn) [Tetrahydrozoline hydrochloride] the “% conversion” value [1] was 39.98% and the inhibition at 20 µM [2] was -10.3%.
In the case of `CC(C)NP(=O)(NC(C)C)OP(=O)(NC(C)C)NC(C)C` [Tetraisopropyl pyrophosphoramide], the “% conversion” value is reported as 27.56%.
With `c1ccc(C2CN3CCSC3=N2)cc1` (stereo not drawn) [Tetramisole hydrochloride] the “% conversion” value [1] was 38.57%.
For `C/C=C(/C)C(=O)O[C@H]1C(C)=C2[C@H]([C@@H]1OC(=O)CCCCCCC)[C@@](C)(OC(C)=O)C[C@H](OC(=O)CCC)[C@@]1(O)[C@H]2OC(=O)[C@@]1(C)O` [Thapsigargin], the “% conversion” value was 31.20%.
`Cn1cnc2c1c(=O)[nH]c(=O)n2C` [Theobromine] was tested, and the “% conversion” value [1] was 26.15%.
For `Cn1c(=O)c2[nH]cnc2n(C)c1=O` [Theophylline], the “% conversion” value was 39.26% and the inhibition at 20 µM was -8.17%.
With `NC(=S)c1ccc[n+]([C@@H]2O[C@@H](COP(=O)([O-])OP(=O)(O)OC[C@H]3O[C@@H](n4cnc5c(N)ncnc54)C(OP(=O)([O-])O)[C@H]3O)C(O)C2O)c1.[Na+]` (stereo partly drawn) [Thio-NADP sodium] the “% conversion” value [1] was 24.90%.
In the case of `S=C(NC1CCCCC1)N1CCC(c2cnc[nH]2)CC1` [Thioperamide maleate], the “% conversion” value is reported as 37.27% and the inhibition at 20 µM [2] is reported as -2.35%.
With `CSc1ccc2c(c1)N(CCC1CCCCN1C)c1ccccc1S2` (stereo not drawn) [Thioridazine hydrochloride] the “% conversion” value [1] was 43.98%.
In the case of `CCN(CC)CCNC(=O)c1cc(S(C)(=O)=O)ccc1OC` [Tiapride hydrochloride], the “% conversion” value [1] is reported as 37.21% and the inhibition at 20 µM [2] is reported as -2.16%.
`CN(C)c1cc(NC(=O)CNC(C)(C)C)c(O)c2c1C[C@H]1C[C@H]3[C@H](N(C)C)C(O)=C(C(N)=O)C(=O)[C@@]3(O)C(O)=C1C2=O` [Tigecycline, tigecycline, reference compound] was tested, and the IC50 (50 nM His6-AspH315–758, 1.0 μM hFX-CP101–119, 3 μM 2OG, 2 μM Fe(II), 50 mM HEPES pH 7.5, 20 °C, mean ± SD, n = 2 (2,4-PDCA n = 10), read-out: IC50) was 7.6 ± 1.95 µM, the inhibition at 20 µM [6] was 95.3% and the “Plate 5 (% inhibition)” value [3] was 90.85%. The “Plate 5 (% conversion)” value [4] was 5.39%.
`CCCCS(=O)(=O)N[C@@H](Cc1ccc(OCCCCC2CCNCC2)cc1)C(=O)O` [Tirofiban hydrochloride monohydrate] was tested, and the “% conversion” value [1] was 29.35%.
For `Clc1ccc2nsnc2c1NC1=NCCN1` [Tizanidine hydrochloride], the “% conversion” value [1] was 37.51%.
`Cc1ccc(S(=O)(=O)NC(=O)NN2CCCCCC2)cc1` [Tolazamide] was tested, and the “% conversion” value [1] was 36.66%.
With `CCCCNC(=O)NS(=O)(=O)c1ccc(C)cc1` [Tolbutamide] the “% conversion” value [1] was 37.22% and the inhibition at 20 µM [2] was -2.2%.
In the case of `Cc1ccc(O)c([C@H](CCN(C(C)C)C(C)C)c2ccccc2)c1` [Tolterodine], the “Plate 5 (% conversion)” value is reported as 15.18% and the “Plate 5 (% inhibition)” value is reported as 62.09%.
In the case of `CNCC[C@@H](Oc1ccccc1C)c1ccccc1` [Tomoxetine], the “% conversion” value [1] is reported as 38.97% and the inhibition at 20 µM [2] is reported as -7.33%.
With `CC[C@@]1(O)C(=O)OCc2c1cc1n(c2=O)Cc2cc3c(CN(C)C)c(O)ccc3nc2-1.Cl.O` [Topotecan hydrochloride hydrate] the “Plate 3 (% conversion)” value was 37.14%.
With `CCOC(=O)N1c2ccc(C(F)(F)F)cc2[C@@H](N(Cc2cc(C(F)(F)F)cc(C(F)(F)F)c2)C(=O)OC)C[C@H]1CC` [Torcetrapib] the “Plate 5 (% inhibition)” value [3] was 13.93% and the “Plate 5 (% conversion)” value [4] was 31.57%.
With `CCOC(=O)[C@H](CCc1ccccc1)N[C@@H](C)C(=O)N1[C@H](C(=O)O)C[C@H]2CCCC[C@@H]21` [Trandolapril] the “Plate 3 (% conversion)” value was 36.50%.
In the case of `COc1ccc(/C=C/C(=O)Nc2ccccc2C(=O)O)cc1OC` [Tranilast], the “% conversion” value [1] is reported as 35.26%.
For `N[C@@H]1C[C@H]1c1ccccc1` [Tranylcypromine hydrochloride], the “% conversion” value was 34.80%.
For `O=c1n(CCCN2CCN(c3cccc(Cl)c3)CC2)nc2ccccn12` [Trazodone hydrochloride], the “% conversion” value [1] was 39.67% and the inhibition at 20 µM [2] was -9.38%.
For `COc1cc2c(cc1OC)-c1c/c(=N\c3c(C)cc(C)cc3C)n(C)c(=O)n1CC2` [Trequinsin hydrochloride], the “% conversion” value [1] was 28.50%.
`C[C@]12C=CC(=O)C=C1CC[C@H]1[C@@H]3C[C@@H](O)[C@](O)(C(=O)CO)[C@@]3(C)C[C@H](O)[C@@]12F` [Triamcinolone] was tested, and the “% conversion” value [1] was 30.89%.
With `Nc1nc(N)c2nc(-c3ccccc3)c(N)nc2n1` [Triamterene] the “% conversion” value [1] was 36.11%.
`CN1CCN(CCCN2c3ccccc3Sc3ccc(C(F)(F)F)cc32)CC1` [Trifluoperazine dihydrochloride] was tested, and the inhibition at 20 µM was -68.5%.
With `O=C(CCCN1CCC(O)(c2cccc(C(F)(F)F)c2)CC1)c1ccc(F)cc1` [Trifluperidol hydrochloride] the “% conversion” value [1] was 30.59%.
`CN(C)CCCN1c2ccccc2Sc2ccc(C(F)(F)F)cc21` [Triflupromazine hydrochloride] was tested, and the inhibition at 20 µM was -23.1%.
`CC(=O)Oc1cc(C(F)(F)F)ccc1C(=O)O` [Triflusal] was tested, and the “% conversion” value [1] was 27.02%.
For `OC(CCN1CCCCC1)(c1ccccc1)C1CCCCC1` (stereo not drawn) [Trihexyphenidyl hydrochloride], the “% conversion” value [1] was 39.76% and the inhibition at 20 µM [2] was -9.65%.
For `COc1cc(Cc2cnc(N)nc2N)cc(OC)c1OC` [Trimethoprim], the “% conversion” value [1] was 37.33%.
`CC(CN(C)C)CN1c2ccccc2CCc2ccccc21` (stereo not drawn) [Trimipramine maleate] was tested, and the “% conversion” value [1] was 41.64% and the inhibition at 20 µM [2] was -15.1%.
In the case of `Cc1ccc(/C(=C\CN2CCCC2)c2ccccn2)cc1.Cl` [Triprolidine hydrochloride], the “% inhibition” value [5] is reported as -7.68% and the “% conversion” value [1] is reported as 39.09%.
`N[C@@H]1[C@H]2CN(c3nc4c(cc3F)c(=O)c(C(=O)O)cn4-c3ccc(F)cc3F)C[C@@H]12` [Trovafloxacin mesylate] was tested, and the “Plate 1 (% inhibition)” value (LOPAC compound at fixed 20 uM, plate 1, normalised to DMSO and 2,4-PDCA controls) was -24.51% and the “Plate 1 (% conversion)” value (LOPAC compound at fixed 20 uM, substrate conversion, plate 1) was 44.10%.
`N[C@@H]1[C@H]2CN(c3nc4c(cc3F)c(=O)c(C(=O)O)cn4-c3ccc(F)cc3F)C[C@@H]12` [Trovafloxacin] was tested, and the “Plate 5 (% inhibition)” value [3] was -0.64% and the “Plate 5 (% conversion)” value [4] was 36.53%.
With `NCCc1c[nH]c2ccccc12` [Tryptamine hydrochloride] the “Plate 1 (% conversion)” value was 34.54% and the “Plate 1 (% inhibition)” value was 3.95%.
`CC(C)(C)NCC(O)c1ccccc1Cl` (stereo not drawn) [Tulobuterol hydrochloride] was tested, and the “% conversion” value [1] was 41.18% and the inhibition at 20 µM [2] was -13.8%.
With `N#CC(C#N)=Cc1ccc(O)c(O)c1` [Tyrphostin 23, reference compound] the inhibition at 20 µM [6] was 98.7%, the “% conversion” value [1] was 2.79% and the inhibition at 20 µM [2] was 98.7%.
